Data: patent US20100136541A1, “IDENTIFICATION AND VERIFICATION OF METHYLATION MARKER SEQUENCES” (Siemens Healthcare Diagnostics Inc., priority 2003, published 2010)

Tested on: CA4 CpG sites
Assay: Bisulfite sequencing of CpG sites, cell lines treated vs. untreated
Format: cell-based, human
Design: unit not given here
Description: Samples: Paired tumor and adjacent normal tissues from twelve colorectal cancer patients were collected under institutional review board (IRB) approval with patient consent. Tissues were flash frozen in LN2 and stored at −80° C. prior to DNA extraction. All tissues were blinded. Cell lines: A panel of five colorectal cancer cell lines was used. Cells were grown to ˜50% confluence in the appropriate culture medium prior to treatment with 5-aza-2′-deoxycytidine. Optimal concentrations and incubation times (Table 4) were determined by assaying for reduction of p16 promoter methylation using MSP. Cells were harvested, pelleted by centrifugation, and washed twice in Hanks buffered saline solution. Cell pellets were stored at −80° C. Control cells were maintained simultaneously without 5-aza-2′-deoxycytidine treatment. DNA extraction: DNA was purified from tissues and cell lines using the QIAGEN DNeasy® Tissue Kit. Approximately 25-35 mg of each tissue was pulverized under liquid nitrogen before extraction. Elution volume for tissues was 2004. A final volume of […] of cell line DNA was extracted from 15 to 254 of each packed cell pellet (between 10^6-10^7 cells). Purified DNA was stored at −20° C. Bisulfite modification: Modification was performed according to the Frommer method (See Frommer M, et al., PNAS, 89: 1827-1831 (1992).) One μg genomic DNA was diluted into 50 μl with distilled H2O, 5.5 μl of 2M NaOH was added, and the mixture incubated at 37° C. for 10 minutes (to create single stranded DNA). Thirty μl of freshly prepared 10 mM hydroquinone (Sigma) was added to each tube. Five hundred twenty μl of freshly prepared 3M sodium bisulfite (Sigma S-8890), pH 5.0 was then added. Reagents were thoroughly mixed and then covered with mineral oil and incubated at 50° C. for 16 hours. After removing the oil, 1 ml of Wizard DNA Cleanup Resin (Promega A7280) was added to each tube prior to applying the mixture to miniprep column in the DNA Wizard Cleanup kit. The column was washed with 2 ml of 80% isopropanol, and eluted with 50 μl of heated water (60-70° C.). 5.5 μl of 3 M NaOH to was added to each tube, and incubated at room temperature for 5 minutes. Then 1 μl glycogen was added as carrier, 33 μl of 10 M NH4Ac, and 3 volumes of ethanol for DNA precipitation. The pellet was spun down and washed with 70% ethanol, dried and resuspended in 20 μl water. In some instances, the EZ DNA Methylation Kit (Zymo Research) which uses a simplified version of the Frommer method was used. In these cases, 1 μg of genomic DNA was denatured in 0.3M NaOH for 15 minutes at 37° C. followed by incubation at 50° C. for 16 hours in 0.5 mM hydroquinone and a saturated solution of sodium bisulfite at pH 5. Modified DNA was bound to the Zymo column membrane, then desulfonated with 0.3M NaOH for 15 minutes at room temperature. DNA was washed and resuspended with 50 μL 10 mM Tris-HCl-0.1 mM EDTA, pH 7.5 and stored at −20° C. The bisulfite reaction results in conversion of an unmethylated cytosine to uracil. Methylated cytosine remains unchanged after the bisulfite reaction. The resulting bisulfite modified DNA is single stranded. PCR amplification for sequencing: Primers were designed to amplify both methylated and unmethylated fragments of DNA (Table 5). Five μL of modified DNA ( 1/10 of modification reaction) was amplified first in a 254, reaction volume containing 10 mM Tris-HCl pH8.3, 50 mM KCl, 1.5 mM to 2 mM MgCl2, (Applied Biosystems), 0.25 mM each dNTP, 0.5 unit AmpliTaq (Applied Biosystems), and sequencing primers (each at 200 nM). Cycling conditions were 10 minutes at 95° C., 40 cycles of 30 seconds at 95° C., 30 seconds at 54-62° C., 30 seconds at 72° C., subsequently followed by extension for 5 minutes at 72° C.
Reaction products were purified either by the shrimp-alkaline phosphatase-Exol standard method or on the Qiagen Qiaquick PCR clean-up column and eluted in 30 μL 10 mM Tris-HCl, pH8.5. […]

Compound: Nc1ncn([C@H]2C[C@H](O)[C@@H](CO)O2)c(=O)n1 [5-aza-2′-deoxycytidine]
- CA4 sequencing result (methylation) at CpG site #6 (HT-29 treated): 47
- CA4 sequencing result (methylation) at CpG site #35 (HT-29 treated): 96
- CA4 sequencing result (methylation) at CpG site #43 (HT-29 treated): 77
- CA4 sequencing result (methylation) at CpG site #52 (HT-29 treated): 92
- CA4 sequencing result (methylation) at CpG site #104 (HT-29 treated): 50
- CA4 sequencing result (methylation) at CpG site #120 (HT-29 treated): 67
- CA4 sequencing result (methylation) at CpG site #127 (HT-29 treated): 74
- CA4 sequencing result (methylation) at CpG site #129 (HT-29 treated): 87
- CA4 sequencing result (methylation) at CpG site #140 (HT-29 treated): 84
- CA4 sequencing result (methylation) at CpG site #153 (HT-29 treated): 83
- CA4 sequencing result (methylation) at CpG site #156 (HT-29 treated): 72
- CA4 sequencing result (methylation) at CpG site #158 (HT-29 treated): 87
- CA4 sequencing result (methylation) at CpG site #164 (HT-29 treated): 87
- CA4 sequencing result (methylation) at CpG site #181 (HT-29 treated): 73
- CA4 sequencing result (methylation) at CpG site #190 (HT-29 treated): 68
- CA4 sequencing result (methylation) at CpG site #199 (HT-29 treated): 92
- CA4 sequencing result (methylation) at CpG site #201 (HT-29 treated): 100
- CA4 sequencing result (methylation) at CpG site #204 (HT-29 treated): 94
- CA4 sequencing result (methylation) at CpG site #213 (HT-29 treated): 91
- CA4 sequencing result (methylation) at CpG site #218 (HT-29 treated): 65
- CA4 sequencing result (methylation) at CpG site #220 (HT-29 treated): 79
- CA4 sequencing result (methylation) at CpG site #227 (HT-29 treated): 47
- CA4 sequencing result (methylation) at CpG site #6 (LS123 treated): 75
- CA4 sequencing result (methylation) at CpG site #35 (LS123 treated): 39
- CA4 sequencing result (methylation) at CpG site #43 (LS123 treated): 62
- CA4 sequencing result (methylation) at CpG site #52 (LS123 treated): 69
- CA4 sequencing result (methylation) at CpG site #104 (LS123 treated): 16
- CA4 sequencing result (methylation) at CpG site #120 (LS123 treated): 27
- CA4 sequencing result (methylation) at CpG site #127 (LS123 treated): 70
- CA4 sequencing result (methylation) at CpG site #129 (LS123 treated): 46
- CA4 sequencing result (methylation) at CpG site #140 (LS123 treated): 62
- CA4 sequencing result (methylation) at CpG site #153 (LS123 treated): 43
- CA4 sequencing result (methylation) at CpG site #156 (LS123 treated): 40
- CA4 sequencing result (methylation) at CpG site #158 (LS123 treated): 22
- CA4 sequencing result (methylation) at CpG site #164 (LS123 treated): 62
- CA4 sequencing result (methylation) at CpG site #181 (LS123 treated): 18
- CA4 sequencing result (methylation) at CpG site #190 (LS123 treated): 11
- CA4 sequencing result (methylation) at CpG site #199 (LS123 treated): 17
- CA4 sequencing result (methylation) at CpG site #201 (LS123 treated): 33
- CA4 sequencing result (methylation) at CpG site #204 (LS123 treated): 20
- CA4 sequencing result (methylation) at CpG site #213 (LS123 treated): 29
- CA4 sequencing result (methylation) at CpG site #218 (LS123 treated): 24
- CA4 sequencing result (methylation) at CpG site #220 (LS123 treated): 20
- CA4 sequencing result (methylation) at CpG site #227 (LS123 treated): 11
- CA4 sequencing result (methylation) at CpG site #6 (LS174T treated): 93
- CA4 sequencing result (methylation) at CpG site #35 (LS174T treated): 35
- CA4 sequencing result (methylation) at CpG site #43 (LS174T treated): 39
- CA4 sequencing result (methylation) at CpG site #52 (LS174T treated): 40
- CA4 sequencing result (methylation) at CpG site #104 (LS174T treated): 18
- CA4 sequencing result (methylation) at CpG site #120 (LS174T treated): 22
- CA4 sequencing result (methylation) at CpG site #127 (LS174T treated): 19
- CA4 sequencing result (methylation) at CpG site #129 (LS174T treated): 62
- CA4 sequencing result (methylation) at CpG site #140 (LS174T treated): 28
- CA4 sequencing result (methylation) at CpG site #153 (LS174T treated): 23
- CA4 sequencing result (methylation) at CpG site #156 (LS174T treated): 32
- CA4 sequencing result (methylation) at CpG site #158 (LS174T treated): 10
- CA4 sequencing result (methylation) at CpG site #164 (LS174T treated): 41
- CA4 sequencing result (methylation) at CpG site #181 (LS174T treated): 22
- CA4 sequencing result (methylation) at CpG site #190 (LS174T treated): 61
- CA4 sequencing result (methylation) at CpG site #199 (LS174T treated): 10
- CA4 sequencing result (methylation) at CpG site #201 (LS174T treated): 67
- CA4 sequencing result (methylation) at CpG site #204 (LS174T treated): 3
- CA4 sequencing result (methylation) at CpG site #213 (LS174T treated): 56
- CA4 sequencing result (methylation) at CpG site #218 (LS174T treated): 64
- CA4 sequencing result (methylation) at CpG site #220 (LS174T treated): 45
- CA4 sequencing result (methylation) at CpG site #227 (LS174T treated): 27
- CA4 sequencing result (methylation) at CpG site #6 (SW480 treated): 70
- CA4 sequencing result (methylation) at CpG site #35 (SW480 treated): 61
- CA4 sequencing result (methylation) at CpG site #43 (SW480 treated): 57
- CA4 sequencing result (methylation) at CpG site #52 (SW480 treated): 73
- CA4 sequencing result (methylation) at CpG site #104 (SW480 treated): 13
- CA4 sequencing result (methylation) at CpG site #120 (SW480 treated): 52
- CA4 sequencing result (methylation) at CpG site #127 (SW480 treated): 44
- CA4 sequencing result (methylation) at CpG site #129 (SW480 treated): 18
- CA4 sequencing result (methylation) at CpG site #140 (SW480 treated): 14
- CA4 sequencing result (methylation) at CpG site #153 (SW480 treated): 17
- CA4 sequencing result (methylation) at CpG site #156 (SW480 treated): 53
- CA4 sequencing result (methylation) at CpG site #158 (SW480 treated): 7
- CA4 sequencing result (methylation) at CpG site #164 (SW480 treated): 66
- CA4 sequencing result (methylation) at CpG site #181 (SW480 treated): 27
- CA4 sequencing result (methylation) at CpG site #190 (SW480 treated): 57
- CA4 sequencing result (methylation) at CpG site #199 (SW480 treated): 28
- CA4 sequencing result (methylation) at CpG site #201 (SW480 treated): 56
- CA4 sequencing result (methylation) at CpG site #204 (SW480 treated): 27
- CA4 sequencing result (methylation) at CpG site #213 (SW480 treated): 51
- CA4 sequencing result (methylation) at CpG site #218 (SW480 treated): 35
- CA4 sequencing result (methylation) at CpG site #220 (SW480 treated): 32
- CA4 sequencing result (methylation) at CpG site #227 (SW480 treated): 23
- CA4 sequencing result (methylation) at CpG site #6 (SW620 treated): 64
- CA4 sequencing result (methylation) at CpG site #35 (SW620 treated): 89
- CA4 sequencing result (methylation) at CpG site #43 (SW620 treated): 81
- CA4 sequencing result (methylation) at CpG site #52 (SW620 treated): 77
- CA4 sequencing result (methylation) at CpG site #104 (SW620 treated): 33
- CA4 sequencing result (methylation) at CpG site #120 (SW620 treated): 74
- CA4 sequencing result (methylation) at CpG site #127 (SW620 treated): 67
- CA4 sequencing result (methylation) at CpG site #129 (SW620 treated): 80
- CA4 sequencing result (methylation) at CpG site #140 (SW620 treated): 78
- CA4 sequencing result (methylation) at CpG site #153 (SW620 treated): 60
- CA4 sequencing result (methylation) at CpG site #156 (SW620 treated): 69
- CA4 sequencing result (methylation) at CpG site #158 (SW620 treated): 73
- CA4 sequencing result (methylation) at CpG site #164 (SW620 treated): 92
- CA4 sequencing result (methylation) at CpG site #181 (SW620 treated): 43
- CA4 sequencing result (methylation) at CpG site #190 (SW620 treated): 46
- CA4 sequencing result (methylation) at CpG site #199 (SW620 treated): 10
- CA4 sequencing result (methylation) at CpG site #201 (SW620 treated): 96
- CA4 sequencing result (methylation) at CpG site #204 (SW620 treated): 100
- CA4 sequencing result (methylation) at CpG site #213 (SW620 treated): 96
- CA4 sequencing result (methylation) at CpG site #218 (SW620 treated): 91
- CA4 sequencing result (methylation) at CpG site #220 (SW620 treated): 93
- CA4 sequencing result (methylation) at CpG site #227 (SW620 treated): 37
